# Target: T1, FGFR-1 (Homo sapiens, UniProt P11362)
# T1 construct: GST; made in house
# Assay: FGFR-1 TR-FRET biochemical assay
# Method: FGFR-1TR-FRET Biochemical Assay
# The FGFR-1 Assay was performed on half well 96-well opaque plates (Costar 3915) in a LANCE format. LANCE is a homogenous time resolved fluormetry based application available through Perkin Elmer. For this assay, 50 uL reactions were set up using: 0.6 uM ATP (Sigma), 25 nM poly GT-biotin (CIS BIO International), 2 nM Eu-labelled phospho-Tyr Ab (PY20 PerkinElmer), 10 nM Streptavidin-APC (Perkin Elmer), 5 nM FGFR1-GST (generated by DRT, Bayer Healthcare), 1% DMSO, 50 mM HEPES pH 7.5, 10 mM MgCl2, 0.1 mM EDTA, 0.015% Brij, 0.1 mg/ml BSA, 0.1% B-mercaptoethanol. All reactions were initiated with the addition of enzyme and were left to incubate for one hour at room temperature. Time-resolved fluorescence was then read on a Perkin Elmer VictorV Multilabel counter. The reading protocol uses an excitation wavelength at 340 nm and emission reads at both 615 and 665 nm. Signal was calculated as a ratio: (Flourescence at 665 nm/Flourescence at 615 nM)*10000 for each well. The background control used for this assay is the signal produced with all assay components excluding ATP. For IC50 generation, compounds were added prior to the enzyme initiation. A 50-fold stock plate was made with compounds serially diluted 1:5 in a 50% DMSO/50% dH2O solution. A 1 μL addition of the stock to the assay wells gave final compound concentrations ranging from 10 μM-0.128 nM in 1% DMSO. The data were expressed as percent inhibition: % inhibition=100−((Signal with inhibitor−background)/(Signal without inhibitor−background))*100.
# [1] = 0.6 uM ATP, 5 nM FGFR1-GST, bounds given in nM
# [2] = upper bound of the bin 'greater than 100 nM but less than 1 μM' (lower bound in E1)
# T1 sequence (P11362 22-822): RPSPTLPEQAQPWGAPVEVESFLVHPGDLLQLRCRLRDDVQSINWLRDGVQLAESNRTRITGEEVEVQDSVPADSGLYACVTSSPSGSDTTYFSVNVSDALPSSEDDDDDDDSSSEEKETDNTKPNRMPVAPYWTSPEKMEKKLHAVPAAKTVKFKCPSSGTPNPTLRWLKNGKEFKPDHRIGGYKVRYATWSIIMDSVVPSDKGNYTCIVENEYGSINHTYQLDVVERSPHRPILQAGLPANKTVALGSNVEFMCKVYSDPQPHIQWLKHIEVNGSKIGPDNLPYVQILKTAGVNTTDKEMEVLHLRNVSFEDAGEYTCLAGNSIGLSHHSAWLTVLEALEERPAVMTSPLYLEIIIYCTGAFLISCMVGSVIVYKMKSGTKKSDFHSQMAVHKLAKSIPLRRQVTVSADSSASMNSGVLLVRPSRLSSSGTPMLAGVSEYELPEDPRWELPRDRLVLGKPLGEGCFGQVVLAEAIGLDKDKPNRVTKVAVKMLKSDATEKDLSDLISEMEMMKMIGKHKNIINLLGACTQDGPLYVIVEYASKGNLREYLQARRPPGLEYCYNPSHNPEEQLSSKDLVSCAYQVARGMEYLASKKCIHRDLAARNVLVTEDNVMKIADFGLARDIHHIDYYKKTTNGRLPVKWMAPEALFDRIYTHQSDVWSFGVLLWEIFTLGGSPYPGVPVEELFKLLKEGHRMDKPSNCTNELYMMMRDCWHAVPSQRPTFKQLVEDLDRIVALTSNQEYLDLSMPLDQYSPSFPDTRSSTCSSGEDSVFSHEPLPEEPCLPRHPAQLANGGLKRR
Structure (SMILES),IC50 [1],IC50 [2]
"Nc1ncnn2c(CN3CCOCC3)cc(-c3cc(F)c(NC(=O)Nc4cc(C(F)(F)F)ccc4F)c(F)c3)c12 [Example 7, N-{4-[4-amino-7-(morpholin-4-ylmethyl)-pyrrolo[2,1-f][1,2,4]triazin-5-yl]-2,6-difluorophenyl}-N′-[Z-fluoro-5-(trifluoro-methyl)phenyl]urea]",> 100 nM,< 1000 nM
"CN(C)CC(=O)N1CCC(c2cc(-c3ccc(NC(=O)Nc4cc(C(F)(F)F)ccc4F)c(Cl)c3)c3c(N)ncnn23)CC1 [Example 240, N-(4-{4-amino-7-[1-(N,N-dimethylglycyl)piperidin-4-yl]pyrrolo[2,1-f][1,2,4]triazin-5-yl}-2-chlorophenyl)-N′-[2-fluoro-5-(trifluoromethyl)phenyl]urea]",< 10 nM,
"Cc1cc(-c2cc(CN3CCOCC3)n3ncnc(N)c23)ccc1NC(=O)Nc1ccc(F)c(C(F)(F)F)c1 [Example 27, N-{4-[4-amino-7-(morpholin-4-ylmethyl)pyrrolo[2,1-f][1,2,4]triazin-5-yl]-2-methylphenyl}-N′-[4-fluoro-3-(trifluoromethyl)phenyl]urea]",< 10 nM,
"Cc1cc(NC(=O)Nc2cc(C(F)(F)F)ccc2Cl)c(F)cc1-c1cc(CN2CCOCC2)n2ncnc(N)c12 [Example 147, N-{4-[4-amino-7-(morpholin-4-ylmethyl)pyrrolo[2,1-f][1,2,4]triazin-5-yl]-2-fluoro-5-methylphenyl}-N′-[2-chloro-5-(trifluoromethyl)phenyl]urea]",> 100 nM,< 1000 nM
"Nc1ncnn2c(CCCN3CCNC(=O)C3)cc(-c3ccc(NC(=O)Nc4cc(C(F)(F)F)ccc4F)c(F)c3)c12 [Example 195, N-(4-{4-amino-7-[3-(3-oxopiperazin-1-yl)propyl]pyrrolo[2,1-f][1,2,4]triazin-5-yl}-2-fluorophenyl)-N′-[2-fluoro-5-(trifluoromethyl)phenyl]urea]",< 10 nM,
"Cc1ccc(F)c(NC(=O)Nc2ccc(-c3cc(CN4CCOCC4)n4ncnc(N)c34)cc2F)c1 [Example 149, N-{4-[4-amino-7-(morpholin-4-ylmethyl)pyrrolo[2,1-f][1,2,4]triazin-5-yl]-2-fluorophenyl}-N′-(2-fluoro-5-methylphenyl)urea]",< 10 nM,
"CN1CCC(c2cc(-c3ccc(NC(=O)Nc4cc(C(F)(F)F)ccc4F)c(F)c3)c3c(N)ncnn23)CC1 [Example 113, N-4-[4-amino-7-(1-methylpiperidin-4-yl)pyrrolo[2,1-f][1,2,4]triazin-5-yl]-2-fluorophenyl-N′-[2-fluoro-5-(trifluoromethyl)phenyl]urea]",< 10 nM,
"CC(C)(C)OC(=O)N1CCC(c2cc(-c3ccc(NC(=O)Nc4cc(C(F)(F)F)ccn4)c(F)c3)c3c(N)ncnn23)C1 (stereo not shown) [Example 208, tert-butyl 3-{4-amino-5-[3-fluoro-4-({[4-(trifluoromethyl)pyridin-2-yl]carbamoyl}amino)phenyl]pyrrolo[2,1-f][1,2,4]triazin-7-yl}pyrrolidine-1-carboxylate]",10 to 100 nM,
"Nc1ncnn2c(C3CCNC3)cc(-c3ccc(NC(=O)Nc4cc(C(F)(F)F)ccc4F)c(F)c3)c12 (stereo not shown) [Example 200, N-[4-(4-amino-7-pyrrolidin-3-ylpyrrolo[2,1-f][1,2,4]triazin-5-yl)-2-fluorophenyl]-N′-[2-fluoro-5-(trifluoromethyl)phenyl]urea]",10 to 100 nM,
"Nc1ncnn2c(CN3CCCOCC3)cc(-c3cc(F)c(NC(=O)Nc4cc(C(F)(F)F)ccc4F)cc3F)c12 [Example 168, N-{4-[4-amino-7-(1,4-oxazepan-4-ylmethyl)pyrrolo[2,1-f][1,2,4]triazin-5-yl]-2,5-difluorophenyl}-N′-[2-fluoro-5-(trifluoromethyl)phenyl]urea]",< 10 nM,
"Nc1ncnn2c(CN3CCOCC3)cc(-c3ccc(NC(=O)Nc4cccc(C(F)(F)F)c4)nc3)c12 [Example 20, N-{5-[4-amino-7-(morpholin-4-ylmethyl)pyrrolo[2,1-f][1,2,4]triazin-5-yl]pyridin-2-yl}-N′-[3-(trifluoromethyl)phenyl]urea]",< 10 nM,
"Nc1ncnn2c(C3CCN(C(=O)CN4CCOCC4)CC3)cc(-c3ccc(NC(=O)Nc4cc(C(F)(F)F)ccc4F)c(Cl)c3)c12 [Example 231, N-(4-{4-amino-7-[1-(morpholin-4-ylacetyl)piperidin-4-yl]pyrrolo[2,1-f][1,2,4]triazin-3-yl}-2-chlorophenyl)-N′-[2-fluoro-5-(trifluoromethyl)phenyl]urea]",10 to 100 nM,
"Nc1ncnn2c(C3CCN(C4CC4)CC3)cc(-c3ccc(NC(=O)Nc4cc(C(F)(F)F)ccn4)c(F)c3)c12 [Example 235, N-{4-[4-amino-7-(1-cyclopropylpiperidin-4-yl)pyrrolo[2,1-f][1,2,4]triazin-5-yl]-2-fluorophenyl}-N′-[4-(trifluoromethyl)pyridin-2-yl]urea]",10 to 100 nM,
"COc1cc(-c2cc(CN3CCOCC3)n3ncnc(N)c23)ccc1NC(=O)Nc1cc(C(F)(F)F)ccc1Cl [Example 35, N-{4-[4-amino-7-(morpholin-4-ylmethyl)pyrrolo[2,1-f][1,2,4]triazin-5-yl]-2-methoxyphenyl}-N′-[2-chloro-5-(trifluoromethyl)phenyl]urea]",10 to 100 nM,
"Cc1cc(-c2cc(CN3CCCOCC3)n3ncnc(N)c23)ccc1NC(=O)Nc1cc(C(F)(F)F)ccn1 [Example 180, 1-{4-[4-amino-7-(1,4-oxazepan-4-ylmethyl)pyrrolo[2,1-f][1,2,4]triazin-5-yl]-2-methylphenyl}-3-[4-(trifluoromethyl)pyridin-2-yl]urea]",< 10 nM,
"Nc1ncnn2c(C(=O)CN3CCOCC3)cc(-c3ccc(NC(=O)Nc4cc(C(F)(F)F)ccc4F)cc3)c12 [Example 103, N-{4-[4-amino-7-(morpholin-4-ylacetyl)pyrrolo[2,1-f][1,2,4]triazin-5-yl]phenyl}-N′-[2-fluoro-5-(trifluoromethyl)-phenyl]urea]",10 to 100 nM,
"Nc1ncnn2c(C3CCNCC3)cc(-c3ccc(NC(=O)Nc4cc(C(F)(F)F)ccc4F)cc3)c12 [Example 242, N-[4-(4-amino-7-piperidin-4-ylpyrrolo[2,1-f][1,2,4]triazin-5-yl)phenyl]-N′-[2-fluoro-5-(trifluoromethyl)phenyl]urea]",< 10 nM,
"CCS(=O)(=O)N1CCN(Cc2cc(-c3ccc(NC(=O)Nc4cc(C(F)(F)F)ccc4F)cc3)c3c(N)ncnn23)CC1 [Example 84, N-[4-(4-amino-7-{[4-(ethylsulfonyl)piperazin-1-yl]methyl}pyrrolo[2,1-f][1,2,4]triazin-5-yl)phenyl]-N′-[2-fluoro-5-(trifluoromethyl)phenyl]urea]",10 to 100 nM,
"CC(=O)c1cc(-c2ccc(NC(=O)Nc3cc(C(F)(F)F)ccc3F)c(F)c2)c2c(N)ncnn12 [Example 253, N-[4-(7-acetyl-4-aminopyrrolo[2,1-f][1,2,4]triazin-5-yl)-2-fluorophenyl]-N′-[2-fluoro-5-(trifluoromethyl)phenyl]urea]",< 10 nM,
"Nc1ncnn2c(CCN3CCOCC3)cc(-c3ccc(NC(=O)Nc4cc(C(F)(F)F)ccn4)c(F)c3)c12 [Example 250, 1-{4-[4-amino-7-(2-morpholin-4-ylethyl)pyrrolo[2,1-f][1,2,4]triazin-5-yl]-2-fluorophenyl}-3-[4-(trifluoromethyl)pyridin-2-yl]urea]",10 to 100 nM,
"COc1cc(-c2cc(CN3CCOCC3)n3ncnc(N)c23)ccc1NC(=O)Nc1cc(C(C)(C)C)no1 [Example 30, N-{4-[4-amino-7-(morpholin-4-ylmethyl)pyrrolo[2,1-f][1,2,4]triazin-5-yl]-2-methoxyphenyl}-N′-(3-tert-butylisoxazol-5-yl)urea]",10 to 100 nM,
"CC(=O)N1CCN(CCCc2cc(-c3ccc(NC(=O)Nc4cc(C(F)(F)F)ccc4F)c(F)c3)c3c(N)ncnn23)CC1 [Example 188, N-(4-{7-[3-(4-acetylpiperazin-1-yl)propyl]-4-aminopyrrolo[2,1-f][1,2,4]triazin-5-yl}-2-fluorophenyl)-N′-[2-fluoro-5-(trifluoromethyl)phenyl]urea]",< 10 nM,
"Nc1ncnn2c(CN3CCOCC3)cc(-c3cc(F)c(NC(=O)Nc4cc(C(F)(F)F)ccn4)c(F)c3)c12 [Example 14, N-{4-[4-amino-7-(morpholin-4-ylmethyl)pyrrolo[2,1-f][1,2,4]triazin-5-yl]-2,6-difluorophenyl}-N′-[4-(trifluoromethyl)pyridin-2-yl]urea]",> 100 nM,< 1000 nM
"CN1CCN(CCCc2cc(-c3ccc(NC(=O)Nc4cc(C(F)(F)F)ccc4F)c(F)c3)c3c(N)ncnn23)CC1 [Example 187, N-(4-{4-amino-7-[3-(4-methylpiperazin-1-yl)propyl]pyrrolo[2,1-f][1,2,4]triazin-5-yl}-2-fluorophenyl)-N′-[2-fluoro-5-(trifluoromethyl)phenyl]urea]",< 10 nM,
"Nc1ncnn2c(CCCN3CCOCC3)cc(-c3ccc(NC(=O)Nc4cc(C(F)(F)F)ccn4)cc3)c12 [Example 107, N-{4-[4-amino-7-(3-morpholin-4-ylpropyl)pyrrolo[2,1-f][1,2,4]triazin-5-yl]phenyl}-N′-[4-(trifluoromethyl)pyridin-2-yl]urea]",< 10 nM,

# Reference: patent US8143393B2, “Substituted 4-amino-pyrrolotriazine derivatives useful for treating hyper-proliferative disorders and diseases associated with angiogenesis” (Bayer HealthCare LLC, priority 2005, dated 2012)
